Test results reported in patent EP1464341B1, “Ubiquinone-containing water-soluble formulation for ophthalmic use” (Visufarma S.p.A, priority 2003, dated 2004).
Several values for one entry are separate records, joined by “and”; a condition that tells them apart may be missing. Equal values may be shown once. One block for each compound: values may come before it.

Assays:
[1] = Pharmacokinetic incorporation of the hydrophilic collyrium in rabbit cornea, retina and plasma (CoQ10 concentration); format: in vivo; conditions: for RETINA Q10-treated, Average / RETINA Q10-treated: retina of treated eye
Description: Assessment of the pharmacokinetic activity of incorporation of the hydrophilic collyrium in rabbit cornea, retina and plasma.
a) The hydrophilic collyrium was assayed on a first lot of three rabbits by instilling Coenzyme Q10 in the right eye and an equivalent excipient free from Q10 and vitamin E TPQS in the contralateral (basal) eye. At + 15 min from the collyrium instillation, CoQ10 concentration in the treated eye and in the other (basal) eye was analysed. The analysis was performed on the retina, the cornea and the plasma of the two eyes.
b) .A second lot of six rabbits was subjected to an analogous assay in which the waiting time was prolonged up to 30 min.

[2] = cited from earlier work
[3] = tested on: superoxide anion generated by human PMNs (polymorphonucleates); conditions: human PMNs suitably stimulated; Ferrocytochrome C method
[4] = treated minus basal, 15 min, average of 3 rabbits
[5] = treated vs basal, 15 min, average of 3 rabbits

incorporation in the cornea ([1]; at both times considered (15 min and 30 min)): scarce
CORNEA Q10-treated, Average ([1]; cornea of treated eye, 15 min, average of 3 rabbits): 1004 pmoles/g
CORNEA Difference, Average ([1]; cornea, treated minus basal, 15 min, average of 3 rabbits): 74 pmol/g
CORNEA %Increase, Average ([1]; cornea, treated vs basal, 15 min, average of 3 rabbits): 7%
CORNEA %Increase ([1]; cornea, treated vs basal, 15 min, individual rabbits): -3% and 65% and -11%
CORNEA %Increase, Average ([1]; cornea, treated vs basal, 30 min, average of 6 rabbits): 4%
PLASMA Q10-treated, Average ([1]; 15 min, average of 3 rabbits): 74 pmoles/g
PLASMA Q10-treated, Average ([1]; 30 min, average of 6 rabbits): 83 pmoles/g
PLASMA Difference, Average [1, 4]: 10 pmol/g
PLASMA Difference, Average ([1]; treated minus basal, 30 min, average of 6 rabbits): 13 pmol/g
PLASMA %Increase, Average [1, 5]: 16%
PLASMA %Increase ([1]; treated vs basal, 15 min, individual rabbits): 15% and 8% and 28%
PLASMA %Increase, Average ([1]; treated vs basal, 30 min, average of 6 rabbits): 18%
PLASMA %Increase ([1]; treated vs basal, 30 min, individual rabbits): 21% (2×) and 7% and 28% and 23% and 12%
RETINA Q10-treated, Average ([1]; 15 min, average of 3 rabbits): 754 pmoles/g
RETINA Q10-treated, Average ([1]; second lot (30 min; head prints 15 min), average of 6 rabbits): 1084.3 pmoles/g
RETINA Difference, Average [1, 4]: 5 pmol/g
RETINA Difference, Average ([1]; treated minus basal, second lot (30 min; head prints 15 min), average of 6 rabbits): 138.8 pmol/g
RETINA %Increase, Average ([1]; treated vs basal (contralateral eye), second lot (30 min; head prints 15 min), average of 6 rabbits): 15%
RETINA % Increase ([1]; treated vs basal eye, 15 min, individual rabbits): -9% and 2% and 11%
RETINA %Increase, Average [1, 5]: 1%
RETINA % Increase ([1]; treated vs basal, second lot (30 min; head prints 15 min), individual rabbits): 21% and 4% and 11% (2×) and 28% and 18%
Compound: COC1=C(OC)C(=O)C(C/C=C(\C)CC/C=C(\C)CC/C=C(\C)CC/C=C(\C)CC/C=C(\C)CC/C=C(\C)CC/C=C(\C)CC/C=C(\C)CC/C=C(\C)CCC=C(C)C)=C(C)C1=O [Formulation Q10, Ubiquinone Q10]
CORNEA Q10-treated ([1]; cornea of treated eye, 15 min, individual rabbits N. 15-17): 887 pmoles/g and 955 pmoles/g and 1170 pmoles/g
CORNEA Difference ([1]; cornea, treated minus basal, 15 min, individual rabbits): -34 pmol/g and 377 pmol/g and -150 pmol/g
CORNEA %Increase ([1]; cornea, treated vs basal, 30 min, individual rabbits): -17% and 16% (2×) and 24% and -7% and -16%
PLASMA Q10-treated ([1]; 15 min, individual rabbits N. 15-17): 62 pmoles/g and 83 pmoles/g and 78 pmoles/g
PLASMA Q10-treated ([1]; 30 min, individual rabbits N. 18-23): 79 pmoles/g and 105 pmoles/g and 106 pmoles/g and 53 pmoles/g and 81 pmoles/g and 73 pmoles/g
PLASMA Difference ([1]; treated minus basal, 15 min, individual rabbits): 8 pmol/g and 6 pmol/g and 17 pmol/g
PLASMA Difference ([1]; treated minus basal, 30 min, individual rabbits): 14 pmoles/g (2×) and 7 pmoles/g and 23 pmoles/g and 10 pmoles/g and 8 pmoles/g
RETINA Q10-treated ([1]; 15 min after instillation, individual rabbits N. 15-17): 787 pmoles/g and 632 pmoles/g and 843 pmoles/g
RETINA Q10-treated ([1]; second lot (waiting time 30 min; head prints 15 min), individual rabbits N. 18-23): 1006 pmoles/g and 1394 pmoles/g and 1037 pmoles/g and 725 pmoles/g and 975 pmoles/g and 1369 pmoles/g
RETINA Difference ([1]; treated minus basal (contralateral) eye, 15 min, individual rabbits): -82 pmol/g and 14 pmol/g and 83 pmol/g
RETINA Difference ([1]; treated minus basal, second lot (30 min; head prints 15 min), individual rabbits): 177 pmol/g and 57 pmol/g and 106 pmol/g and 74 pmol/g and 211 pmol/g and 208 pmol/g
solubility in water [2]: totally insoluble in water

Compound: d-Alpha-tocopheryl polyethylene glycol 1000-succinate [vitamin E TPGS]
scavenging action with regards to the superoxide anion [3]: scavenging action
